From ChEMBL document CHEMBL3994562 (Medchemcomm, 2016)
In brackets after ≈: the same amount, converted by molar mass.

Assays:
[1] = Aqueous solubility of the compound in water after 48 hrs by UV spectrophotometer; format: physicochemical
HepG2 [2] = test: Antiproliferative activity in human HepG2 cells after 72 hrs by MTT assay; format: functional, cell-based; details: HepG2, 72 h
HCT-116 [3] = test: Antiproliferative activity in human HCT116 cells after 72 hrs by MTT assay; format: functional, cell-based; details: HCT-116, 72 h
A549 [4] = test: Antiproliferative activity in human A549 cells after 72 hrs by MTT assay; format: functional, cell-based; details: A549, 72 h
MCF7 [5] = test: Antiproliferative activity in human MCF7 cells after 72 hrs by MTT assay; format: functional, cell-based; details: MCF7, 72 h
Bel-7402 [6] = test: Antiproliferative activity in human Bel7402 cells after 72 hrs by MTT assay; format: functional, cell-based; details: Bel-7402, 72 h
Bel-7402 [7] = test: Antiproliferative activity in 5-FU resistant human Bel7402 cells after 72 hrs by MTT assay; format: functional, cell-based; details: Bel-7402, 72 h
HCT-116 [8] = test: Potency index, ratio of 5-FU IC50 to compound IC50 for human HCT116 cells; format: functional
HepG2 [9] = test: Potency index, ratio of 5-FU IC50 to compound IC50 for human HepG2 cells; format: functional
SCC-4 = test: Antiproliferative activity against human SCC4 cells; format: functional, cell-based
SGC-7901 = test: Antiproliferative activity against human SGC7901 cells after 24 to 72 hrs by MTT assay; format: functional, cell-based
MCF7 [10] = test: Antiproliferative activity against human MCF7 cells; format: functional, cell-based
A549 [11] = test: Antiproliferative activity against human A549 cells
HL-60 = test: Antiproliferative activity against human HL60 cells; format: functional, cell-based
[12] = Antiproliferative activity against human nasopharyngeal carcinoma cells; format: functional, cell-based; details: Nasopharyngeal carcinoma cell
HepG2 [13] = test: Antiproliferative activity against human HepG2 cells
Bel-7402 [14] = test: Antiproliferative activity against human Bel7402 cells after 24 to 72 hrs by MTT assay; format: functional, cell-based

Cl.O=C(OCCCN1CCCCC1)c1cc(O)c2c(c1)C(=O)c1cccc(O)c1C2=O
solubility at 48 h [1]: 11.3 mg/mL | IC50 (HepG2 [2]): 3.44 µM | IC50 (HCT-116 [3]): 0.77 µM | IC50 (A549 [4]): 5.41 µM | IC50 (MCF7 [5]): 7.74 µM

CCN(CC)CCCCOC(=O)c1cc(O)c2c(c1)C(=O)c1cccc(O)c1C2=O.Cl
solubility at 48 h [1]: 13 mg/mL | IC50 (HepG2 [2]): 1.34 µM | IC50 (HCT-116 [3]): 1.81 µM | IC50 (A549 [4]): 3.86 µM | IC50 (MCF7 [5]): 5.36 µM

Cl.O=C(OCCCCCN1CCOCC1)c1cc(O)c2c(c1)C(=O)c1cccc(O)c1C2=O
solubility at 48 h [1]: 12.3 mg/mL | IC50 (HepG2 [2]): 6.03 µM | IC50 (HCT-116 [3]): 8.73 µM | IC50 (A549 [4]): 10.8 µM | IC50 (MCF7 [5]): 9.85 µM

Cl.O=C(OCCCCCCN1CCCCC1)c1cc(O)c2c(c1)C(=O)c1cccc(O)c1C2=O
solubility at 48 h [1]: 11 mg/mL | IC50 (HepG2 [2]): 0.52 µM | IC50 (HCT-116 [3]): 0.48 µM | IC50 (A549 [4]): 3.01 µM | IC50 (MCF7 [5]): 5.92 µM | IC50 (Bel-7402 [6]): 3.95 µM | IC50 (Bel-7402 [7]): 5.95 µM | Ratio IC50 (HCT-116 [8]): 5 - 18 | Ratio IC50 (HepG2 [9]): 5 - 18

CCN1CCN(CCCCCCOC(=O)c2cc(O)c3c(c2)C(=O)c2cccc(O)c2C3=O)CC1.Cl.Cl
solubility at 48 h [1]: 10.2 mg/mL | IC50 (HepG2 [2]): 1.47 µM | IC50 (HCT-116 [3]): 1.93 µM | IC50 (A549 [4]): 6.42 µM | IC50 (MCF7 [5]): 3.25 µM

CCN1CCN(CCCOC(=O)c2cc(O)c3c(c2)C(=O)c2cccc(O)c2C3=O)CC1.Cl.Cl
solubility at 48 h [1]: 10.1 mg/mL | IC50 (HepG2 [2]): 1.36 µM | IC50 (HCT-116 [3]): 3.97 µM | IC50 (A549 [4]): 7.62 µM | IC50 (MCF7 [5]): 3.59 µM

Cl.O=C(OCCCCN1CCCCC1)c1cc(O)c2c(c1)C(=O)c1cccc(O)c1C2=O
solubility at 48 h [1]: 10.7 mg/mL | IC50 (HepG2 [2]): 0.89 µM | IC50 (HCT-116 [3]): 2.03 µM | IC50 (A549 [4]): 26.4 µM | IC50 (MCF7 [5]): 28.9 µM

Cl.O=C(OCCCCCCN1CCOCC1)c1cc(O)c2c(c1)C(=O)c1cccc(O)c1C2=O
solubility at 48 h [1]: 12.8 mg/mL | IC50 (HepG2 [2]): 0.79 µM | IC50 (HCT-116 [3]): 3.26 µM | IC50 (A549 [4]): 25.4 µM | IC50 (MCF7 [5]): 27.5 µM

O=C(O)c1cc(O)c2c(c1)C(=O)c1cccc(O)c1C2=O [RHEIN]
IC50 (SCC-4): 58 µM | IC50 (SGC-7901): 150 µM | solubility at 48 h [1]: 0.0456 mg/mL (≈ 160 µM) | IC50 (HepG2 [2]): 101 µM | IC50 (HCT-116 [3]): 116 µM | IC50 (A549 [4]): 120 µM | IC50 (MCF7 [5]): 106 µM | IC50 (MCF7 [10]): 130 µM | IC50 (Bel-7402 [6]): 120 µM | IC50 (Bel-7402 [7]): 136 µM | IC50 (A549 [11]): 80 µM | IC50 (HL-60): 100 µM | IC50 [12]: 140 µM | IC50 (HepG2 [13]): 710 µM | IC50 (Bel-7402 [14]): 110 µM

Cl.O=C(OCCCCCN1CCCCC1)c1cc(O)c2c(c1)C(=O)c1cccc(O)c1C2=O
solubility at 48 h [1]: 10.3 mg/mL | IC50 (HepG2 [2]): 6.12 µM | IC50 (HCT-116 [3]): 5.28 µM | IC50 (A549 [4]): 8.69 µM | IC50 (MCF7 [5]): 1.95 µM

Cl.Cl.O=C(OCCCCN1CCN(CCO)CC1)c1cc(O)c2c(c1)C(=O)c1cccc(O)c1C2=O
solubility at 48 h [1]: 12 mg/mL | IC50 (HepG2 [2]): 3.65 µM | IC50 (HCT-116 [3]): 0.85 µM | IC50 (A549 [4]): 2.5 µM | IC50 (MCF7 [5]): 4 µM

O=c1[nH]cc(F)c(=O)[nH]1 [FLUOROURACIL]
IC50 (HepG2 [2]): 5.82 µM | IC50 (HCT-116 [3]): 4.3 µM | IC50 (A549 [4]): 10.3 µM | IC50 (MCF7 [5]): 4.32 µM | IC50 (Bel-7402 [6]): 7.57 µM | IC50 (Bel-7402 [7]): 214 µM

CCN(CC)CCCCCCOC(=O)c1cc(O)c2c(c1)C(=O)c1cccc(O)c1C2=O.Cl
solubility at 48 h [1]: 13.8 mg/mL | IC50 (HepG2 [2]): 0.33 µM | IC50 (HCT-116 [3]): 0.83 µM | IC50 (A549 [4]): 4.39 µM | IC50 (MCF7 [5]): 7.56 µM | IC50 (Bel-7402 [6]): 6.49 µM | IC50 (Bel-7402 [7]): 7.31 µM | Ratio IC50 (HCT-116 [8]): 5 - 18 | Ratio IC50 (HepG2 [9]): 5 - 18
